For assay [1], the target named is T1, baculovirus-expressed human trkA cytoplasmic domain (Homo sapiens, UniProt P04629).
T1 construct: baculovirus-expressed human trka cytoplasmic domain; made in house; host or cells: baculovirus expression system
Nature of the assay: Inhibition of trkA tyrosine kinase activity (ELISA-based assay). Format: biochemical. Particulars: for IC50: 40 μM ATP; for inhibition at 0.3 µM: read-out: trkA % inh @ 300 nM. On the procedure:
Selected bridged indenopyrrolocarbazole compounds were tested for their ability to inhibit the kinase activity of baculovirus-expressed human trka cytoplasmic domain using an ELISA-based assay as previously described (Angeles et al., Anal. Biochem. 236: 49-55, 1996). Briefly, the 96-well microtiter plate was coated with substrate solution (recombinant human phospholipase C-γl/glutathione S-transferase fusion protein (Rotin et al., EMBO J., 11: 559-567, 1992). Inhibition studies were performed in 100 μl assay mixtures containing 50 mM Hepes, pH 7.4, 40 μM ATP, 10 mM MnCl2, 0.1% BSA, 2% DMSO, and various concentrations of inhibitor. The reaction was initiated by addition of trkA kinase and allowed to proceed for 15 minutes at 37° C. An antibody to phosphotyrosine (UBI) was then added, followed by a secondary enzyme-conjugated antibody, alkaline phosphatase-labelled goat anti-mouse IgG (Bio-Rad). The activity of the bound enzyme was measured via an amplified detection system (Gibco-BRL). Inhibition data were analyzed using the sigmoidal dose-response (variable slope) equation in GraphPad Prism.
(In general: ELISA stands for enzyme-linked immunosorbent assay.)

The target of assay [2] is T2, PDGFβ receptor kinase domain (Homo sapiens, UniProt P09619).
T2 construct: baculovirus-expresses PDGFβ receptor kinase domain; made in house; host or cells: baculovirus expression system
T2 sequence (P09619 600-962 limits assumed): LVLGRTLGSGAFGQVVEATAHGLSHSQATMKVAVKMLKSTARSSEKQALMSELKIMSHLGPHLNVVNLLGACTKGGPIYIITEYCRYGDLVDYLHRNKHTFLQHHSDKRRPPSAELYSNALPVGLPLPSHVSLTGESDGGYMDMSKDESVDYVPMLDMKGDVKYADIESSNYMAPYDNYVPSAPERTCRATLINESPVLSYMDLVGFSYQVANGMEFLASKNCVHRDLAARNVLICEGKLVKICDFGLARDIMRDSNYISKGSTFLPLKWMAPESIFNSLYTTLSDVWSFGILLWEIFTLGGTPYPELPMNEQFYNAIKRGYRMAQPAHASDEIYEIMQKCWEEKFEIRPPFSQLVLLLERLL
Nature of the assay: Inhibition of PDGF receptor kinase activity (ELISA). Particulars: for PDGFR % Inh. @ 1 μM / inhibition at 1 µM: values in parentheses; for inhibition at 1 µM: read-out: PDGFR % Inh. @ 1 μM; for IC50: 20 μM ATP, read-out: PDGFR IC50. It counts as biochemical. The protocol: Bridged indenopyrrolocarbazole compounds were examined for their inhibitory effects on the kinase activity of baculovirus-expresses PDGFβ receptor kinase domain using the trkA kinase ELISA described above. Assays were performed in substrate (PLC-γ/GST)-coated 96-well microtiter plates. Each 100-μl reaction mixture contained 50 mM HEPES, pH 7.4, 20 μM ATP, 10 mM MnCl2, 0.1% BSA, 2% DMSO, and various concentrations of inhibitor. The reaction was initiated by addition of prephosphorylated recombinant human enzyme (10 ng/ml PDGFRβ) and allowed to proceed for 15 minutes at 37° C. The prephosphorylated enzyme was prepared prior to use by incubation of the kinase in buffer containing 20 μM ATP and 10 mM MnCl2 for 1 hour at 4° C. Detection of phosphorylated product was done by adding horseradish peroxidase (HRP)-conjugated anti-phosphotyrosine antibody (UBI). The HRP substrate solution containing 3, 3′-5, 5′-tetramethylbenzidine and hydrogen peroxide was later added and the plates were incubated for 10 minutes at room temperature. The reaction was quenched with acid and the resulting absorbance was read at 450 nm using a Microplate Bio-kinetics Reader (Bio-Tek Instrument EL 312e). Inhibition data were analyzed using the sigmoidal dose-response (variable slope) equation in GraphPad Prism.

Assay [3] has as its target T3, VEGF receptor (human flk-1, KDR, VEGFR2) kinase domain (Homo sapiens, UniProt P35968).
T3 construct: VEGF receptor (human flk-1, KDR, VEGFR2) kinase domain; made in house; host or cells: baculovirus expression system
Nature of the assay: Inhibition of VEGF receptor kinase activity (ELISA). The conditions noted are these: 40 μM ATP; read-out: VEGFR kinase IC50. It counts as biochemical. On the procedure:
Bridged indenopyrrolocarbazole compounds were examined for their inhibitory effects on the kinase activity of baculovirus-expressed VEGF receptor (human flk-1, KDR, VEGFR2) kinase domain using the procedure described for the trkA kinase ELISA assay described above. The kinase reaction mixture, consisting of 50 mM Hepes, pH 7.4, 40 μM ATP, 10 mM MnCl2, 0.1% BSA, 2% DMSO, and various concentrations of inhibitor, was transferred to PLC-γ/GST-coated plates. VEGFR kinase was added and the reaction was allowed to proceed for 15 min. at 37° C. Detection of phosphorylated product was accomplished by addition of anti-phosphotyrosine antibody (UBI). A secondary enzyme-conjugated antibody was delivered to capture the antibody-phosphorylated PLC-γ/GST complex. The activity of the bound enzyme was measured via an amplified detection system (Gibco-BRL). Inhibition data were analyzed using the sigmoidal dose-response (variable slope) equation in GraphPad Prism.

For assay [4], the system named is protein kinase C (mixed isozymes of a, b, g). Nature of the assay: Inhibition of protein kinase C activity (Millipore Multiscreen TCA in-plate assay). Format: biochemical. Particulars: for PKC % Inh. @ 1 uM: values in parentheses; for IC50: read-out: PKC IC50. On the procedure:
Protein kinase C activity was assessed using the Millipore Multiscreen TCA “in-plate” assay as described in Pitt, A. M. and Lee, C. (J. Biomol. Screening, 1: 47-51, 1996). Assays were performed in 96-well Multiscreen-DP plates (Millipore). Each […] assay mixture contained 20 mM Hepes, pH 7.4, 10 mM MgCl2, 2.5 mM EGTA, 2.5 mM CaCl2, 80 mg/ml phosphatidyl serine, 3.2 mg/ml diolein, 200 mg/ml histone H-1(Fluka), 5 mM [γ-^32P]ATP, 1.5 ng protein kinase C (UBI; mixed isozymes of a, b, g), 0.1% BSA, 2% DMSO, and test bridged fused pyrrolocarbazole compound. The reaction was allowed to proceed for 10 min at 37° C., then quenched by adding ice cold 50% trichloroacetic acid. The plates were allowed to equilibrate for 30 min at 4° C., then washed with ice cold 25% TCA. Scintillation cocktail was added to the plates, and the radioactivity was determined using Wallac MicroBeta 1450 PLUS scintillation counter. The IC50 values were calculated by fitting the data to the sigmoidal dose-response (variable slope) equation in GraphPad Prism.

Assay [5] deals with T4, trkA in NIH3T3 cells transfected with trkA (Homo sapiens, UniProt P04629).
T4 construct: expressed in transfected cells; host or cells: NIH3T3 cells
T4 sequence (P04629 33-796): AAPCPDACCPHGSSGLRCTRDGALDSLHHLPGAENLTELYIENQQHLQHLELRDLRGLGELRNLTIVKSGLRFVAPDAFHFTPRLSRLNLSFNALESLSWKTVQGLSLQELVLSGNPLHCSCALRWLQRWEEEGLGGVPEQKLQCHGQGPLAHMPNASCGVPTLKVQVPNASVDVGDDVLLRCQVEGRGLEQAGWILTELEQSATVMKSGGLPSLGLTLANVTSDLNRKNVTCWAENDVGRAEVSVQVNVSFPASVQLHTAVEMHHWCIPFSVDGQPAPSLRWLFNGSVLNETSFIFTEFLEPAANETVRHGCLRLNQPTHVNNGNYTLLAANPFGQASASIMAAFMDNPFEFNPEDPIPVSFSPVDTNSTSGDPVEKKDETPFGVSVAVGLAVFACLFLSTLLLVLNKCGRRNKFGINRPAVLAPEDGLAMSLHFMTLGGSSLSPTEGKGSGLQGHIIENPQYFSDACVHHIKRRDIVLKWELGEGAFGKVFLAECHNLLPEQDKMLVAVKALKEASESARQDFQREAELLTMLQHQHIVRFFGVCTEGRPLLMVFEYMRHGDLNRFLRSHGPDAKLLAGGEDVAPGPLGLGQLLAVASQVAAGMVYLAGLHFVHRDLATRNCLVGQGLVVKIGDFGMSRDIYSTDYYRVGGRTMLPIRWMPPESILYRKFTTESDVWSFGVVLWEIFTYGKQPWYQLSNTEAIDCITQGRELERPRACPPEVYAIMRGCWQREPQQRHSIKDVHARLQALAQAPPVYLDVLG
The assay can be described thus: Inhibition of NGF-stimulated trk phosphorylation in a whole cell preparation. Format: cell-based. Further details: key to Inhibition Score at 100 nM: 0=no decrease; 1=1-25%; 2=26-49%; 3=50-75%; 4=76-100%. The conditions noted are these: NGF 10 ng/ml, percent decrease in trk protein band; for Inhibition Score at 100 nM: 100 nM compound; for Inhibition Score at 1000 nM: 1000 nM compound. The protocol: NIH3T3 cells transfected with trkA were grown in 100 mm dishes. Subconfluent cells were serum-starved by replacing media with serum-free 0.05% BSA-DMEM containing compound (100 nM and 1 μM) or DMSO (added to controls) for one hour at 37° C. NGF (Harlan/Bioproducts for Science) was then added to the cells at a concentration of 10 ng/ml for 5 minutes. Cells were lysed in buffer containing detergent and protease inhibitors. Clarified cell lysates were normalized to protein using BCA method and immunoprecipitated with anti-trk antibody. Polyclonal anti-trk antibody was prepared against a peptide corresponding to the 14 amino acids at the carboxy terminus of trk (Martin-Zanca et al., Mol. Cell. Biol. 9: 24-33, 1989). The immune complexes were collected on Protein A Sepharose beads (Sigma Chem. Co., St. Lois, Mo.), separated by SDS polyacrylamide gel electrophoresis (SDS-PAGE), and transferred to a polyvinylidene difluoride (PVDF) membrane. The membrane was immunoblotted with anti-phosphotyrosine antibody (UBI), followed by incubation with horseradish peroxidase coupled goat anti-mouse IgG (Bio-Rad Laboratories, Hercules, Calif.). Phosphorylated proteins were visualized using ECL (Amersham Lite Science, Inc., Arlington Heights, Ill.). The area of the trk protein band was measured and compared to NGF-stimulated control. The inhibition scoring system used, based on percent decrease in trk protein band, was as follows: 0=no decrease; 1=1-25%; 2=26-49%; 3=50-75%; 4=76-100% Results are shown below in Table 3.

Here are results for 14 compounds from US6359130B1, “Bridged indenopyrrolocarbazoles” (Cephalon, Inc., priority 1998, dated 2002).

T1 sequence (P04629 440-796 limits assumed): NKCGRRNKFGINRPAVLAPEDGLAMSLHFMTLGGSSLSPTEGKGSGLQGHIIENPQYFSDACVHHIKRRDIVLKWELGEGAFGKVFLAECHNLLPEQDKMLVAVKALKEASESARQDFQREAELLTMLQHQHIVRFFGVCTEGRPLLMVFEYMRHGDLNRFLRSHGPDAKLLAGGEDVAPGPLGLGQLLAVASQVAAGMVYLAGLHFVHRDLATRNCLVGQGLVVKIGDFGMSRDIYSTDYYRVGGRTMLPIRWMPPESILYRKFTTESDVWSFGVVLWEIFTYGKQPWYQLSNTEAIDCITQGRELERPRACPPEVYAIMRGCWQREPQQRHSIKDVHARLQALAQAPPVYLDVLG
T3 sequence (P35968 834-1162 limits assumed): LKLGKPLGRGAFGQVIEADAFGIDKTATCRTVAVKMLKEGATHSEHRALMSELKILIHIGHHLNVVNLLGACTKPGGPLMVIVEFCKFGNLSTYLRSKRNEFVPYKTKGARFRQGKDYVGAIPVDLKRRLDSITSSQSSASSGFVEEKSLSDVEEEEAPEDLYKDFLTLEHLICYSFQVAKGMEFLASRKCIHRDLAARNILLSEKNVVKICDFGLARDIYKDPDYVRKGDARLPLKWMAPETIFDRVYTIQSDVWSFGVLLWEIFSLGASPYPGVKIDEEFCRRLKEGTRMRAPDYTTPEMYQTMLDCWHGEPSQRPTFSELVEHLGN

What is called IC50 is the point on the concentration scale where inhibition reaches its midpoint. For `CCOC(=O)C12CCC(O1)n1c3ccccc3c3c4c(c5c(c31)C2c1ccccc1-5)C(=O)NC4` (stereo not drawn) [II-11], the IC50 in assay [1] was determined as 0.121 µM; in assay [3] it was 0.205 µM. For the same compound, the “PDGFR % Inh. @ 1 μM” value in assay [2] is on record as “(15) %”. Moreover, the “PKC % Inh. @ 1 uM” value in assay [4] was “(19) %”.
`CCC12c3ccccc3-c3c4c(c5c6ccccc6n(c5c31)C1CCC2O1)CNC4=O` (stereo not drawn) [II-2]: in assay [1] (300 nM, values in parentheses), the inhibition at 0.3 µM was 20%. Further, the inhibition at 1 µM in assay [2] was 7%. For the same compound, the IC50 in assay [3] was more than 10 µM. In addition, in assay [4], the “PKC % Inh. @ 1 uM” value is listed as “(−9) %”.
As for `CC12CCC(O1)n1c3ccccc3c3c4c(c5c(c31)C2c1ccccc1-5)C(=O)NC4` (stereo not drawn) [II-3], in assay [1], the IC50 turned out to be 0.009 µM. The “PDGFR % Inh. @ 1 μM” value in assay [2] was “(28) %”. Also, the concentration for half-maximal inhibition (IC50) in assay [3] turned out to be 0.071 µM. Besides, in assay [5], the “Inhibition Score at 100 nM” value is 1 (1=1-25%) and the “Inhibition Score at 1000 nM” value was 4 (4=76-100%). Also, in assay [4], the “PKC % Inh. @ 1 uM” value is on record as “(23) %”.
As for `CC12COCC(O1)n1c3ccccc3c3c4c(c5c(c31)C2c1ccccc1-5)C(=O)NC4` (stereo not drawn) [II-7b], the IC50 is 0.005 µM in assay [1], 0.26 µM in assay [3] and 0.568 µM in assay [4]. In addition, the inhibition at 1 µM in assay [2] was found to be 34%. Further, in assay [5], the “Inhibition Score at 100 nM” value is 3 (3=50-75%). In addition, the “Inhibition Score at 1000 nM” value in assay [5] was 4 (4=76-100%).
Turning to `Nc1cccc(-c2ccc3c(c2)c2c4c(c5c6c2n3C2CCC(O2)C6c2ccccc2-5)C(=O)NC4)c1` (stereo not drawn) [II-9], in assay [1] (300 nM, values in parentheses), the inhibition at 0.3 µM turned out to be 34%. Also, the inhibition at 1 µM in assay [2] came out at 24%. Besides, the IC50 in assay [3] is 0.318 µM. For the same compound, the “PKC % Inh. @ 1 uM” value in assay [4] is reported as “(5) %”.
Regarding `O=C1NCc2c1c1c3c4c2c2ccccc2n4C2CCC(O2)C3c2ccccc2-1` (single isomer, unassigned) [II-1b], the IC50 in assay [3] came to 0.067 µM.
For `O=C1NCc2c3c4c5c(c21)c1ccccc1n5C1CCC(O1)C4c1ccccc1-3` (stereo not drawn) [II-8], the IC50 in assay [1] turned out to be 0.254 µM; in assay [3], 0.026 µM; in assay [4], 1.08 µM. Moreover, in assay [2], the inhibition at 1 µM turned out to be 15%.
Take `CC12CCCC(O1)n1c3ccccc3c3c4c(c5c(c31)C2c1ccccc1-5)C(=O)NC4` (single isomer, unassigned) [II-4a]: the IC50 was 0.076 µM in assay [1] and 0.017 µM in assay [3]. For the same compound, the “PDGFR % Inh. @ 1 μM” value in assay [2] is “(0) %”. Moreover, the “PKC % Inh. @ 1 uM” value in assay [4] is recorded as “(18) %”.
In the case of `O=C1NC(=O)c2c1c1c3c4c2c2ccccc2n4C2CCC(O2)C3(O)c2ccccc2-1` (stereo not drawn) [II-10], in assay [1] (300 nM, values in parentheses), the “trkA % inh @ 300 nM” value is “(17) %”. Also, the “PDGFR % Inh. @ 1 μM” value in assay [2] is “(23) %”. Besides, the IC50 in assay [3] is 0.601 µM. Moreover, the “PKC % Inh. @ 1 uM” value in assay [4] is “(5) %”.
With `CC12CCC(O1)n1c3ccc(Br)cc3c3c4c(c5c(c31)C2c1ccccc1-5)C(=O)NC4` (stereo not drawn) [II-5], the IC50 in assay [1] turned out to be 0.072 µM; in assay [2] it was 1.08 µM; in assay [3] it was 0.398 µM. Moreover, the “PKC % Inh. @ 1 uM” value in assay [4] is recorded as “(37) %”.
Take `COc1ccc2c(c1)-c1c3c(c4c5ccccc5n5c4c1C2C1CCC5O1)CNC3=O` (stereo not drawn) [II-13]: the figures for the half-maximal inhibitory concentration (IC50) in assay [2], in assay [3] and in assay [4] were 1.23 µM, 0.008 µM and 0.576 µM, respectively.
Take `CC12CCCC(O1)n1c3ccccc3c3c4c(c5c(c31)C2c1ccccc1-5)C(=O)NC4` (single isomer, unassigned) [II-4b]: in assay [1], it took 0.016 µM to reach half-maximal inhibition (IC50). In addition, the “PDGFR % Inh. @ 1 μM” value in assay [2] is listed as “(17) %”. Further, in assay [3], the IC50 came out at 0.184 µM. Moreover, in assay [5], the “Inhibition Score at 100 nM” value stood at 0 and the “Inhibition Score at 1000 nM” value is listed as 2 (2=26-49%). Moreover, the “PKC % Inh. @ 1 uM” value in assay [4] is recorded as “(28) %”.
As to `O=C1NCc2c1c1c3c4c2c2ccccc2n4C2CCC(CO)(O2)C3c2ccccc2-1` (stereo not drawn) [II-12], the IC50 amounted to 0.017 µM in assay [1], 0.125 µM in assay [2], 0.02 µM in assay [3] and 0.518 µM in assay [4].
As for `CC12COCC(O1)n1c3ccccc3c3c4c(c5c(c31)C2c1ccccc1-5)C(=O)NC4` (single isomer, unassigned) [II-7a], the concentration for half-maximal inhibition (IC50) in assay [1] is 0.011 µM; in assay [3], 0.087 µM; in assay [4] it was 0.696 µM. Moreover, the “PDGFR % Inh. @ 1 μM” value in assay [2] is given as “(36) %”. Moreover, the “Inhibition Score at 100 nM” value in assay [5] was 3 (3=50-75%). In addition, the “Inhibition Score at 1000 nM” value in assay [5] was 4 (4=76-100%).
